This passage reports Kd results from paper PMC8162404, “Proteomimetic surface fragments distinguish targets by function” (Chemical Science, 2020).

One experiment concerns the target T1, S100A4 (Homo sapiens, UniProt P26447).
T1 construct: made in house; host or cells: Escherichia coli BL21(DE3)
Kind of experiment: Pull-down assay with immobilized protein and LSM libraries. The class given is binding. Particulars: H14 library; 1:1 binding assumed; read-out: Surface mapping KD (apparent). The method in brief:
(§1)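 Buffers were HEPES pH 7.4 with 150 mM NaCl, plus 1 mM TCEP and 1 mM CaCl2 (50 mM HEPES) for S100A4 and S100B, 1 mM TCEP for Gal-1, and no additive for RecQ-WH. Immobilized protein at 64 µM was equilibrated 30 min with the LSM sublibrary, and unbound probes were measured by LC-MS.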

The next experiment deals with T2, Gal-1 (Homo sapiens, UniProt P09382).
T2 construct: made in house; host or cells: E. coli BL21(DE3)
T2 sequence (P09382 whole entry): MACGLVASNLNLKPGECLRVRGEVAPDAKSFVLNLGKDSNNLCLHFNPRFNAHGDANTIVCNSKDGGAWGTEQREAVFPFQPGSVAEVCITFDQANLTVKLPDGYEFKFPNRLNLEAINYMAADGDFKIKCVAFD
The description is as above. The class given is binding. Conditions: H14 library; 1:1 binding assumed; read-out: Surface mapping KD (apparent). The method in brief:
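His-tagged protein immobilized on Co-NTA resin (64 µM) in 20 mM HEPES pH 7.4, 150 mM NaCl, equilibrated 30 min at room temperature with foldamer LSM sublibraries at equimolar total concentration. Unbound fractions quantified by HPLC-MS versus protein-free resin control; apparent KD assumes 1:1 binding.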

For experiment [1], the target named is T3, S100B (Homo sapiens, UniProt P04271).
T3 construct: made in house; host or cells: Escherichia coli BL21(DE3)
T3 sequence (P04271 1-92): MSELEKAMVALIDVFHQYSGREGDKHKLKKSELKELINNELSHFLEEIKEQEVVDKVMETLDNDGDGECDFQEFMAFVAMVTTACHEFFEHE
Described as above. The class given is binding. Particulars: H14 library; 1:1 binding assumed; read-out: Surface mapping KD (apparent). The essentials: as §1

The next experiment deals with T4, CaM (Bos taurus, UniProt P62157).
T4 construct: made in house; host or cells: E. coli BL21 (DE3)
Described as above. In kind it is binding, bovine. Particulars: H14 library; 1:2 stoichiometry assumed; read-out: Surface mapping KD (apparent). The method in brief:
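His-tagged protein immobilized on Co-NTA resin, equilibrated 30 min at room temperature with LSM sublibraries (64 members, […]), equimolar protein to total probe. CaM buffer: 20 mM HEPES pH 7.4, 150 mM NaCl, 5 mM CaCl2. Bound fractions from HPLC-MS loss of unbound probe versus protein-free resin control; Kd derived.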

Experiment [2] has as its target T3, S100B. Kind of experiment: Competition pull-down with native ligand RSK1 (689–735). In kind it is binding. Particulars: H14 library; competitor peptide 200 µM; read-out: Surface mapping KD (apparent), competition.

T1 sequence (P26447 whole entry): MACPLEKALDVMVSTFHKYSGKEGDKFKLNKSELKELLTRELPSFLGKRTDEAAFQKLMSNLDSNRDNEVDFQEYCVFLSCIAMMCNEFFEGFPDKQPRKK

In the case of `C[C@@H](CC(=O)N[C@H]1CCCC[C@@H]1C(=O)N[C@H]1CCCC[C@@H]1C(=O)N[C@H](CC(=O)N[C@H]1CCCC[C@@H]1C(N)=O)Cc1ccc(O)cc1)NC(=O)[C@H]1CCCC[C@@H]1N` [H14 AY], the Kd at S100A4 was 221 µM; on Gal-1, 353 µM; at S100B [1], 192 µM; at CaM, 119 µM; on S100B [2], 304 µM.

With `CC[C@H](C)[C@@H](CC(=O)N[C@H]1CCCC[C@@H]1C(=O)N[C@H]1CCCC[C@@H]1C(=O)N[C@@H](C)CC(=O)N[C@H]1CCCC[C@@H]1C(N)=O)NC(=O)[C@H]1CCCC[C@@H]1N` [H14 IA], the Kd turned out to be 7 µM on S100A4; 247 µM on Gal-1; 108 µM on S100B [1]; 16 µM at CaM; 296 µM at S100B [2].

As for `CC[C@H](C)[C@@H](CC(=O)N[C@H]1CCCC[C@@H]1C(=O)N[C@H]1CCCC[C@@H]1C(=O)N[C@@H](CO)CC(=O)N[C@H]1CCCC[C@@H]1C(N)=O)NC(=O)[C@H]1CCCC[C@@H]1N` [H14 IS], the Kd at S100A4 worked out at 79 µM; on Gal-1 it was 266 µM; at S100B [1] it was 382 µM; at CaM it was 142 µM; at S100B [2] it was 456 µM.

Turning to `CC(C)C[C@@H](CC(=O)N[C@H]1CCCC[C@@H]1C(=O)N[C@H]1CCCC[C@@H]1C(=O)N[C@@H](CC(N)=O)CC(=O)N[C@H]1CCCC[C@@H]1C(N)=O)NC(=O)[C@H]1CCCC[C@@H]1N` [H14 LN], the Kd is 433 µM at S100A4; 314 µM on Gal-1; 409 µM on S100B [1]; 294 µM at CaM; 254 µM at S100B [2].

As to `CC(C)C[C@@H](CC(=O)N[C@H]1CCCC[C@@H]1C(=O)N[C@H]1CCCC[C@@H]1C(=O)N[C@@H](CCCNC(=N)N)CC(=O)N[C@H]1CCCC[C@@H]1C(N)=O)NC(=O)[C@H]1CCCC[C@@H]1N` [H14 LR], the Kd worked out at 138 µM at S100A4; 116 µM on Gal-1; 82 µM at S100B [1]; 14 µM at CaM; 167 µM on S100B [2].

Regarding `CC(C)C[C@@H](CC(=O)N[C@H]1CCCC[C@@H]1C(=O)N[C@H]1CCCC[C@@H]1C(=O)N[C@@H](CO)CC(=O)N[C@H]1CCCC[C@@H]1C(N)=O)NC(=O)[C@H]1CCCC[C@@H]1N` [H14 LS], the Kd on S100A4 was determined as 195 µM; at Gal-1, 498 µM; at S100B [1] it was 379 µM; on CaM, 99 µM; on S100B [2], 371 µM.

Consider `CC(C)C[C@@H](CC(=O)N[C@H]1CCCC[C@@H]1C(=O)N[C@H]1CCCC[C@@H]1C(=O)N[C@H](CC(=O)N[C@H]1CCCC[C@@H]1C(N)=O)[C@@H](C)O)NC(=O)[C@H]1CCCC[C@@H]1N` [H14 LT], for which the Kd at S100A4 stood at 66 µM; on Gal-1, 336 µM; on S100B [1] it was 162 µM; on CaM it was 39 µM; on S100B [2], 294 µM.

Consider `CSCC[C@@H](CC(=O)N[C@H]1CCCC[C@@H]1C(=O)N[C@H]1CCCC[C@@H]1C(=O)N[C@@H](C)CC(=O)N[C@H]1CCCC[C@@H]1C(N)=O)NC(=O)[C@H]1CCCC[C@@H]1N` [H14 MA], for which the Kd at S100A4 worked out at 72 µM; at Gal-1 it was 385 µM; at S100B [1], 380 µM; on CaM, 16 µM; at S100B [2], 382 µM.

Turning to `CSCC[C@@H](CC(=O)N[C@H]1CCCC[C@@H]1C(=O)N[C@H]1CCCC[C@@H]1C(=O)N[C@H](CC(=O)N[C@H]1CCCC[C@@H]1C(N)=O)[C@@H](C)O)NC(=O)[C@H]1CCCC[C@@H]1N` [H14 MT], the Kd on S100A4 was determined as 148 µM; on Gal-1, 424 µM; at S100B [1], 476 µM; at CaM, 63 µM; at S100B [2], 337 µM.

As for `CC(C)[C@@H](CC(=O)N[C@H]1CCCC[C@@H]1C(=O)N[C@H]1CCCC[C@@H]1C(=O)N[C@@H](CCCNC(=N)N)CC(=O)N[C@H]1CCCC[C@@H]1C(N)=O)NC(=O)[C@H]1CCCC[C@@H]1N` [H14 VR], the Kd at S100A4 was 284 µM; at Gal-1 it was 289 µM; at S100B [1], 77 µM; at CaM, 40 µM; at S100B [2] it was 221 µM.
